Measured values taken from patent US20220401564A1 (DANA-FARBER CANCER INSTITUTE, INC., priority 2019, published 2022).
Entries after “also recorded” stand apart in the source; their conditions may differ.

How the values were obtained:
VHL = molecular target: T1, VHL (Homo sapiens, UniProt P40337); test: Cellular VHL engagement assay (BRD4BD2-GFP / mCherry reporter cells); type: cell-based; conditions: with 250 nM AT1, 5 h
T1 construct: Cells stably expressing the BRD4BD2-GFP with mCherry reporter (40) were seeded; endogenous in cells
T1 sequence (P40337 whole entry, species assumed): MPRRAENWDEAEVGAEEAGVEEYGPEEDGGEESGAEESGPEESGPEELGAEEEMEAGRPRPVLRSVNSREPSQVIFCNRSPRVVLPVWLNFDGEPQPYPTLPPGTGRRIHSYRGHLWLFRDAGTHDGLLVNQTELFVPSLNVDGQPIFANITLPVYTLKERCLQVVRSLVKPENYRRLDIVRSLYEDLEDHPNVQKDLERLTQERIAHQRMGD
Protocol: Cells stably expressing the BRD4BD2-GFP with mCherry reporter (40) were seeded at 30-50% confluency in 384-well plates with 50 μL per well of FluoroBrite™ DMEM media (Thermo Fisher Scientific, A18967) supplemented with 10% FBS a day before compound treatment. Compounds and 250 nM AT1((2S,4R)-1-(2R)-2-Acetamido-3-[[6-[2-[(6S)-4-(4-chlorophenyl)-2,3,9-trimethyl-6H-thieno[3,2-f][1,2,4]triazolo[4,3-a][1,4]diazepin-6-yl]acetamido]hexyl]thio]-3-methylbutanoyl]-4-hydroxy-N-[4-(4-methylthiazol-5-yl)benzyl)pyrrolidinine-2-carboxamide) were dispensed using a D300e Digital Dispenser (HP), normalized to 0.5% DMSO, and incubated with the cells for 5 h. The assay plate was imaged immediately using an Acumen® High Content Imager (TTP Labtech) with 488 nm and 561 nm lasers in a […] grid per well format. The resulting images were analyzed using CellProfiler™.
A series of image analysis steps (an ‘image analysis pipeline’) was constructed. First, the red and green channels were aligned and cropped to target the middle of each well (to avoid analysis of the heavily clumped cells at the edges). A background illumination function was calculated for both red and green channels of each well individually and subtracted to correct for illumination variations across the 384-well plate from various sources of error. An additional step was then applied to the green channel to suppress the analysis of large auto fluorescent artifacts and enhance the analysis of cell specific fluorescence by way of selecting for objects under a given size (30 A.U.) and with a given shape (speckles). mCherry-positive cells were then identified in the red channel by filtering for objects 8-60 pixels in diameter and by using intensity to distinguish between clumped objects. The green channel was then segmented into GFP positive and negative areas and objects were labeled as GFP positive if at least 40% of it overlapped with a GFP positive area. The fraction of GFP-positive cells/mCherry-positive cells in each well was then calculated, and the green and red images were rescaled for visualization.

HDAC3 = HDAC3 (Homo sapiens, UniProt O15379); test: Change in cellular protein abundance (TMT proteomics) in Kelly cells; type: cell-based; parameters: relative change in relative protein abundance with treatment of Kelly cells; endogenous in cells; host or cells: Kelly cells; conditions: for HDAC3 protein levels, relative protein abundance compared to DMSO control: scatter plots FIG. 1 and FIG. 3
Chain of HDAC3 (O15379 whole entry): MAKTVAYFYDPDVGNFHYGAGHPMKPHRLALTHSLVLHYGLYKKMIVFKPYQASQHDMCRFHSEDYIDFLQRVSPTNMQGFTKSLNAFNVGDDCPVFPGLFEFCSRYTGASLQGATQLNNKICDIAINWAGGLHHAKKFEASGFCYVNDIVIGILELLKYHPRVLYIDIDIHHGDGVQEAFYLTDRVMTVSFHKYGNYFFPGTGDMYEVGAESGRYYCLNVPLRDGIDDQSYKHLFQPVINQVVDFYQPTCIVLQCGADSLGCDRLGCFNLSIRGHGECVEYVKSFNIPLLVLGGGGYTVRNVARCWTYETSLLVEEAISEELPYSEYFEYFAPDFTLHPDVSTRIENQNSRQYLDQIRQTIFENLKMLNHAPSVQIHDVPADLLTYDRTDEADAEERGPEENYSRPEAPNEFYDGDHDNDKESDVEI
Protocol: Lysis buffer (8 M Urea, 50 mM NaCl, 50 mM 4-(2hydroxyethyl)-1-piperazineethanesulfonic acid (EPPS) pH 8.5, protease and phosphatase inhibitors from Roche®) were added to the cell pellets and homogenized by 20 passes through a 21 gauge (1.25 in. long) needle to achieve a cell lysate with a protein concentration between 1-4 mg mL-1. A micro-BCA assay (Pierce™) was used to determine the final protein concentration in the cell lysate. 200 μg of protein for each sample were reduced and alkylated as described in Donovan et al., Elife 7:e38430 (2018).
Proteins were precipitated using methanol/chloroform. Four volumes of methanol were added to the cell lysate, followed by one volume of chloroform, and finally three volumes of water. The mixture was vortexed and centrifuged to separate the chloroform phase from the aqueous phase. The precipitated protein was washed with three volumes of methanol, centrifuged and the resulting washed precipitated protein was allowed to air dry. The precipitated protein was resuspended in 4 M Urea, 50 mM HEPES pH 7.4, followed by dilution to 1 M urea with the addition of 200 mM EPPS, pH 8. Proteins were first digested with LysC (1:50; enzyme:protein) for 12 hours at room temperature. The LysC digestion was diluted to 0.5 M Urea with 200 mM EPPS pH 8 followed by digestion with trypsin (1:50; enzyme:protein) for 6 hours at 37° C. Tandem mass tag (TMT) reagents (Thermo Fisher Scientific) were dissolved in anhydrous acetonitrile (ACN) according to manufacturer's instructions.
Anhydrous ACN was added to each peptide sample to a final concentration of 30% v/v, and labeling was induced with the addition of TMT reagent to each sample at a ratio of 1:4 peptide:TMT label. The 10-plex labeling reactions were performed for 1.5 hours at room temperature and the reaction quenched by the addition of hydroxylamine to a final concentration of 0.3% for 15 minutes at room temperature. The sample channels were combined at a 1:1:1:1:1:1:1:1:1:1:1 ratio, desalted using Cis solid phase extraction cartridges (Waters®) and analyzed by LC-MS for channel ratio comparison. Samples were then combined using the adjusted volumes determined in the channel ratio analysis and dried down in a speed vacuum. The combined sample was then resuspended in 1% formic acid, and acidified (pH 2-3) before being subjected to desalting with C18 SPE (Sep-Pak®, Waters®). Samples were then offline fractionated into 96 fractions by high pH reverse-phase HPLC (Agilent® LC1260) through an aeris peptide xb-c18 column (Phenomenex®) with mobile phase A containing 5% acetonitrile and 10 mM NH4HCO3 in LC-MS grade H2O, and mobile phase B containing 90% acetonitrile and 10 mM NH4HCO3 in LC-MS grade H2O (both pH 8.0). The 96 resulting fractions were then pooled in a non-continuous manner into 24 fractions and these fractions were used for subsequent mass spectrometry analysis.
Data were collected using an Orbitrap Fusion™ Lumos™ mass spectrometer (Thermo Fisher Scientific, San Jose, Calif., USA) coupled with a Proxeon EASY-nLC™ 1200 LC pump (Thermo Fisher Scientific). Peptides were separated on an EasySpray™ ES803 75 μm inner diameter microcapillary column (ThermoFisher Scientific).
Each analysis used an MS3-based TMT method as described previously. The data were acquired using a mass range of m z 340-1350, resolution 120,000, automatic gain control (AGC) target 1×10^6, maximum injection time 100 ms, dynamic exclusion of 120 seconds for the peptide measurements in the Orbitrap Fusion™ Lumos™ mass spectrometer. Data dependent MS2 spectra were acquired in the ion trap with a normalized collision energy (NCE) set at 55%, AGC target set to 1.5×10^5 and a maximum injection time of 150 ms. […]

| SMILES | IC50 (VHL) [µM] | cellular HDAC3 protein levels, change in relative protein abundance (heat map FIG. 2) (HDAC3; 1 μM, 5 hours, vs DMSO) | HDAC3 protein levels, relative protein abundance compared to DMSO control (HDAC3) |
| --- | --- | --- | --- |
| Cc1ncsc1-c1ccc([C@H](C)NC(=O)[C@@H]2C[C@@H](O)CN2C(=O)[C@@H](NC(=O)CCOCCOCCN(CCc2c[nH]c3ccccc23)Cc2ccc(/C=C/C(=O)NO)cc2)C(C)(C)C)cc1 [Compound 2, (2S,4R)-1-((S)-14-(tert-butyl)-3-(4-((E)-3-(hydroxyamino)-3-oxoprop-1-en-1-yl)benzyl)-1-(1H-indol-3-yl)-12-oxo-6,9-dioxa-3,13-diazapentadecan-15-oyl)-4-hydroxy-N—((S)-1-(4-(4-methylthiazol-5-yl)phenyl)ethyl)pyrrolidine-2-carboxamide] | 11.7 | down-regulation | significant and selective reduction |
| Cc1ncsc1-c1ccc(CNC(=O)[C@@H]2C[C@@H](O)CN2C(=O)[C@@H](NC(=O)C2(F)CC2)C(C)(C)C)c(OCCCCCN(CCc2c[nH]c3ccccc23)Cc2ccc(/C=C/C(=O)NO)cc2)c1 [Compound 7, (2S,4R)—N-(2-((5-((2-(1H-indol-3-yl)ethyl)(4-((E)-3-(hydroxyamino)-3-oxoprop-1-en-1-yl)benzyl)amino)pentyl)oxy)-4-(4-methylthiazol-5-yl)benzyl)-1-((S)-2-(1-fluorocyclopropane-1-carboxamido)-3,3-dimethylbutanoyl)-4-hydroxypyrrolidine-2-carboxamide] | 9.4 |  | promote degradation; also recorded: significant and selective reduction |
